The target in one assay is T1, P-selectin (Homo sapiens, UniProt P16109).
T1 sequence (P16109 whole entry): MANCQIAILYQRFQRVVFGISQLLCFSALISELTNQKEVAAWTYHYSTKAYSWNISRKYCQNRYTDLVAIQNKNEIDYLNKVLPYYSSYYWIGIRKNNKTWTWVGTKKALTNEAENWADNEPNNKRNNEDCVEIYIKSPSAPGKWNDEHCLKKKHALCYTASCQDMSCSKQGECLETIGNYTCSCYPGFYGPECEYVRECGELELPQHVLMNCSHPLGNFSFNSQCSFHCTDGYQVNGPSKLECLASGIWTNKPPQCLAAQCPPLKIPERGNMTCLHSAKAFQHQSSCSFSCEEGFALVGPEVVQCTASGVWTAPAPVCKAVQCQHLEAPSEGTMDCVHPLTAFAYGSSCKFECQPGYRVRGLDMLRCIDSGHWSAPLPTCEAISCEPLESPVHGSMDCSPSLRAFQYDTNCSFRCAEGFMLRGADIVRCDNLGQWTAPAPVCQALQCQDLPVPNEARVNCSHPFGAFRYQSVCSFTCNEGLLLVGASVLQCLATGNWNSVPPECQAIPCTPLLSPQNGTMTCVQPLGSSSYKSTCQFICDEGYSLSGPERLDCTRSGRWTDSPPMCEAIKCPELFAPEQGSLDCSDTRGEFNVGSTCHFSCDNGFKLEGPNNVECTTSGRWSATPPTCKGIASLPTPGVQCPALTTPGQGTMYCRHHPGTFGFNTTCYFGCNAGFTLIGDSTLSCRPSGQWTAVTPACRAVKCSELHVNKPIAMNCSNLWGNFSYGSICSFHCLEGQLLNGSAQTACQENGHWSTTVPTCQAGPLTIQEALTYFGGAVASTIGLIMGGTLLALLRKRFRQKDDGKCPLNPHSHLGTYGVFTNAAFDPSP
The experiment in a line: Binding affinity to recombinant human P-selectin assessed as dissociation constant by surface plasmon resonance (SPR) analysis.

The next assay concerns the target T2, E-selectin (Homo sapiens, UniProt P16581).
T2 sequence (P16581 whole entry): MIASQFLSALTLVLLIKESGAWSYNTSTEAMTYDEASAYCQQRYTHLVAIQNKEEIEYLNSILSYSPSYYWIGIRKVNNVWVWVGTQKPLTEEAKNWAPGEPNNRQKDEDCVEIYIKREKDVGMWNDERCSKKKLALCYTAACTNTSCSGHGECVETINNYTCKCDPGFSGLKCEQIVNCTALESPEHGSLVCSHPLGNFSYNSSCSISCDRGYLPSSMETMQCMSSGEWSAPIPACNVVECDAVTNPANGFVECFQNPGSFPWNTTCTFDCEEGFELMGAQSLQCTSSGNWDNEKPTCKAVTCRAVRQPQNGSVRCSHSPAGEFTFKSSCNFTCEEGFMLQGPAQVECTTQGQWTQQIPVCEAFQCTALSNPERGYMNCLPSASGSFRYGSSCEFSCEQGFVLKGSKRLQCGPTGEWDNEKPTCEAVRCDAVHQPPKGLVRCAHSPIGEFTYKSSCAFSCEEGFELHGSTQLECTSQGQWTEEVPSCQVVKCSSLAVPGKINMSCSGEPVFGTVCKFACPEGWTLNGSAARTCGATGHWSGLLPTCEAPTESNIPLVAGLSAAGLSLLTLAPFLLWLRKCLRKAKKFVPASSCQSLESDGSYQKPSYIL
The experiment in a line: Binding affinity to recombinant human E-selectin assessed as dissociation constant by surface plasmon resonance (SPR) analysis. Background: Surface plasmon resonance follows binding to a sensor surface in real time, without labels.

The subject of assay [1] is Mus musculus. The experiment in a line: Immunosuppressive effect in thioglycolate-induced hyper-inflammatory C57BL/6 wild type mouse model assessed as effect on neutrophil level in […] peritoneal cavity at 2.5 micromol/kg, iv measured after 2 hrs by flow cytometry based in vivo cell recruitment assay. Type of assay: functional, organism-based. The note with it: dose 2.5 µmol/kg. (Flow cytometry measures light scatter and fluorescence of single cells or particles in a stream.)

Assay [2] concerns Mus musculus. The experiment in a line: Immunosuppressive effect in thioglycolate-induced hyper-inflammatory C57BL/6 wild type mouse model assessed as reduction in neutrophil level in […] peritoneal cavity at 2.5 micromol/kg, iv pre-administered for 10 min followed by thioglycolate administration for 10 min and further incubated with compound for 1 hr 40 min by flow cytometry based in vivo cell recruitment assay. Type of assay: functional, organism-based. The note with it: dose 2.5 µmol/kg, time 2.0 hrs.

For assay [3], the system named is Mus musculus. The experiment in a line: Immunosuppressive effect in thioglycolate-induced hyper-inflammatory C57BL/6 wild type mouse model assessed as effect on CD11b+ level in […] peritoneal cavity at 2.5 micromol/kg, iv pre-administered 10 min followed by thioglycolate administration measured after 10 min by flow cytometry based in vivo cell recruitment assay. The format is functional, organism-based. The note with it: dose 2.5 µmol/kg, time 20.0 min.

Assay [4] has as its system Mus musculus. The experiment in a line: Immunosuppressive activity in thioglycolate induced hyper-inflammatory C57BL/6 wild type mouse model assessed as effect on neutrophil levels at 2 micromol/kg, iv pre-administered 10 min followed by thioglycolate administration measured after 10 min by flow cytometry analysis. The format is functional, organism-based. The note with it: dose 2.0 µmol/kg, time 20.0 min.

Assay [5] relates to Mus musculus. The experiment in a line: Immunosuppressive effect in thioglycolate-induced hyper-inflammatory C57BL/6 wild type mouse model assessed as effect on PSGL-1+ level in […] peritoneal cavity at 2.5 micromol/kg,iv pre-administered 10 min followed by thioglycolate administration measured after 10 min by flow cytometry based in vivo cell recruitment assay. The format is functional, organism-based. The note with it: dose 2.5 µmol/kg, time 20.0 min.

The test system of assay [6] is Mus musculus. The experiment in a line: Immunosuppressive effect in thioglycolate-induced hyper-inflammatory C57BL/6 wild type mouse model assessed as effect on macrophage/monocytes level in […] peritoneal cavity at 2.5 micromol/kg, iv pre-administered 10 min followed by thioglycolate administration measured after 10 min by flow cytometry based in vivo cell recruitment assay. The format is functional, organism-based. The note with it: dose 2.5 µmol/kg, time 20.0 min.

In assay [7] the test system is Mus musculus. The experiment in a line: Immunosuppressive effect in thioglycolate induced hyper-inflammatory C57BL/6 wild type mouse model assessed as reduction in CD11b+ level in […] peritoneal cavity at 2.5 micromol/kg,iv pre-administered for 10 min followed by thioglycolate administration for 10 min and further incubated with compound for 1 hr 40 min by flow cytometry in vivo cell recruitment assay. The format is functional, organism-based. The note with it: dose 2.5 µmol/kg, time 2.0 hrs.

Assay [8] relates to Mus musculus. The experiment in a line: Immunosuppressive activity in thioglycolate induced hyper-inflammation in C57BL/6 wild type mouse model assessed as reduction in macrophages/monocytes levels at 2 micromol/kg, iv pre-administered for 10 min followed by thioglycolate administration for 10 min and further incubated with compound for 1 hr 40 min by flow cytometry in vivo cell recruitment assay. The format is functional, organism-based. The note with it: dose 2.0 µmol/kg, time 2.0 hrs.

Assay [9] has as its system Mus musculus. The experiment in a line: Immunosuppressive effect in thioglycolate-induced hyper-inflammatory C57BL/6 wild type mouse model assessed as reduction in neutrophil level in skin of peritoneal cavity at 2.5 micromol/kg, iv administered after 24 hrs of thioglycolate injection in peritoneal cavity followed by after 2 hrs treated at 2.5 micromol/kg, ip and followed by after 6 hrs treated at 2.5 micromol/kg, ip and followed by after 15 hrs treated at 2.5 micromol/kg, ip and measured after 3 hrs by flow cytometry based in vivo cell recruitment assay. Type of assay: functional, organism-based. The note with it: time 26.0 hrs.

Assay [10] relates to Mus musculus. The experiment in a line: Immunosuppressive effect in thioglycolate-induced hyper-inflammatory C57BL/6 wild type mouse model assessed as reduction in PSGL-1+ level in […] peritoneal cavity at 2.5 micromol/kg, iv administered after 24 hrs of thioglycolate injection in peritoneal cavity followed by after 2 hrs treated at 2.5 micromol/kg, ip and followed by after 6 hrs treated at 2.5 micromol/kg, ip and followed by after 15 hrs treated at 2.5 micromol/kg, ip and measured after 3 hrs by flow cytometry based in vivo cell recruitment assay. The format is functional, organism-based. The note with it: time 26.0 hrs.

The test system of assay [11] is Mus musculus. The experiment in a line: Immunosuppressive effect in thioglycolate-induced hyper-inflammatory C57BL/6 wild type mouse model assessed as reduction in CD11b+ level in skin of peritoneal cavity at 2.5 micromol/kg, iv administered after 24 hrs of thioglycolate injection in peritoneal cavity followed by after 2 hrs treated at 2.5 micromol/kg, ip and followed by after 6 hrs treated at 2.5 micromol/kg, ip and followed by after 15 hrs treated at 2.5 micromol/kg, ip and measured after 3 hrs by flow cytometry based in vivo cell recruitment assay. The format is functional, organism-based. The note with it: time 26.0 hrs.

Assay [12] has as its system Mus musculus. The experiment in a line: Immunosuppressive effect in thioglycolate-induced hyper-inflammatory C57BL/6 wild type mouse model assessed as reduction in macrophage/monocyte level in […] peritoneal cavity at 2.5 micromol/kg, iv administered after 24 hrs of thioglycolate injection in peritoneal cavity followed by after 2 hrs treated at 2.5 micromol/kg, ip and followed by after 6 hrs treated at 2.5 micromol/kg, ip and followed by after 15 hrs treated at 2.5 micromol/kg, ip and measured after 3 hrs by flow cytometry based in vivo cell recruitment assay. Type of assay: functional, organism-based. The note with it: time 26.0 hrs.

For assay [13], the system named is Mus musculus. The experiment in a line: Immunosuppressive effect in thioglycolate induced hyper-inflammatory C57BL/6 wild type mouse model assessed as reduction in PSGL-1 positive cell level in skin of peritoneal cavity at 2.5 micromol/kg, iv pre-administered for 10 min followed by thioglycolate administration for 10 min and further incubated with compound for 1 hr 40 min by flow cytometry based in vivo cell recruitment assay. The format is functional, organism-based. The note with it: dose 2.5 µmol/kg, time 2.0 hrs.

The source of these data is ChEMBL document CHEMBL6153061, “Sialyl Lewisx Glycomimetics as E- and P-Selectin Antagonists Targeting Hyperinflammation” (ACS Med Chem Lett, 2025).

Activity calls are given as the source filed them. The calls are words filed in the database; no cut-off is given here.

A word on the Kd: it is the constant that tells how readily two partners part at equilibrium. With `CC(C)OC(=O)[C@H](O[C@@H]1O[C@@H](C)[C@@H](O)[C@@H](O)[C@@H]1O)[C@@H](O[C@@H]1O[C@H](CO)[C@H](O)[C@H](O[C@H](Cc2ccccc2)C(=O)O)[C@H]1OC(=O)c1ccccc1)C(=O)OC(C)C`, the equilibrium dissociation constant (Kd) on P-selectin and at E-selectin was 1 µM throughout.
For `CC(=O)N[C@@H]1[C@@H](O[C@@H]2O[C@@H](C)[C@@H](O)[C@@H](O)[C@@H]2O)[C@H](O[C@@H]2O[C@H](CO)[C@H](O)[C@H](O[C@]3(C(=O)O)C[C@H](O)[C@@H](NC(C)=O)[C@H]([C@H](O)[C@H](O)CO)O3)[C@H]2O)[C@@H](CO)O[C@H]1O`, in the assay with Mus musculus [1], the outcome was inactive.
`CC(C)OC(=O)[C@H](O[C@@H]1O[C@@H](C)[C@@H](O)[C@@H](O)[C@@H]1O)[C@@H](O[C@@H]1O[C@H](CO)[C@@]2(O)CC[C@@H](c3nnn[nH]3)O[C@@H]2[C@H]1OC(=O)c1ccccc1)C(=O)OC(C)C`: the result in the assay with Mus musculus [2], in the assay on Mus musculus [7], in the assay with Mus musculus [8], with Mus musculus [9], with Mus musculus [10] and with Mus musculus [11] was Active. Moreover, the outcome in the assay on Mus musculus [12] was Active. In addition, the result in the assay with Mus musculus [3], in the assay with Mus musculus [4], in the assay with Mus musculus [5] and in the assay on Mus musculus [6] was inactive.
With `CC(C)OC(=O)[C@H](O[C@@H]1O[C@@H](C)[C@@H](O)[C@@H](O)[C@@H]1O)[C@@H](O[C@@H]1O[C@H](COC(=O)c2ccccc2)[C@@]2(O)CC[C@@H](C(=O)O)O[C@H]2[C@H]1OC(=O)c1ccccc1)C(=O)OC(C)C`, the outcome in the assay on Mus musculus [2], in the assay with Mus musculus [7], in the assay on Mus musculus [8], with Mus musculus [9], with Mus musculus [10] and in the assay on Mus musculus [11] was Active. Further, the result with Mus musculus [12] was Active. Further, the outcome in the assay on Mus musculus [3], with Mus musculus [4], in the assay with Mus musculus [5] and in the assay on Mus musculus [6] was inactive. Besides, the Activity result in the assay on Mus musculus [1] was “Active; Lowering Neutrophil Levels”.
With `CC(C)OC(=O)[C@H](O[C@@H]1O[C@@H](C)[C@@H](O)[C@@H](O)[C@@H]1O)[C@@H](O[C@@H]1O[C@H](COC(=O)c2ccccc2)[C@@]2(O)CC[C@H](C(=O)O)O[C@H]2[C@H]1OC(=O)c1ccccc1)C(=O)OC(C)C`, the result with Mus musculus [1] was inactive.
Regarding `CC(C)OC(=O)[C@H](O[C@@H]1O[C@@H](C)[C@@H](O)[C@@H](O)[C@@H]1O)[C@@H](O[C@@H]1O[C@H](COC(=O)c2ccccc2)[C@@]2(O)CC[C@@H](c3nnn[nH]3)O[C@@H]2[C@H]1OC(=O)c1ccccc1)C(=O)OC(C)C`, the result in the assay on Mus musculus [2], in the assay on Mus musculus [7], with Mus musculus [8], in the assay on Mus musculus [13], with Mus musculus [9] and with Mus musculus [10] was Active. Besides, the outcome with Mus musculus [11] and in the assay on Mus musculus [12] was Active. Further, the result in the assay with Mus musculus [3], with Mus musculus [4], in the assay with Mus musculus [5] and in the assay on Mus musculus [6] was inactive.
